In PubChem BioAssay AID248 (DTP/NCI, 2004):
Several values for one entry are separate records, joined by “and”; a condition that tells them apart may be missing. Identical values can stand only once. Toxic doses and inconclusive results are not listed. Cut-off read from the data, not from the text of the source: active = T/C of 150% or more; inactive = T/C below 125%.

System: L1210 leukemia ip in BDF1 mice, survival T/C
Assay: NCI In Vivo Anticancer Drug Screen. Data for tumor model L1210 Leukemia (intraperitoneal) in B6D2F1 (BDF1) mice
Settings: endpoint: mean survival time, higher = longer survival
Outline: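 Each compound was tested against a transplantable tumor grown in mice. The endpoint was survival, with treated animals benchmarked against vehicle controls as a simple ratio.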

[1] = dose: 100.0 mg/kg/injection, schedule: Q01DX001 (ip), vehicle: saline
[2] = dose: 100.0 mg/kg/injection, schedule: Q04DX003 (ip), vehicle: saline
[3] = dose: 200.0 mg/kg/injection, schedule: Q04DX003 (ip), vehicle: saline
[4] = dose: 400.0 mg/kg/injection, schedule: Q04DX003 (ip), vehicle: saline
[5] = dose: 100.0 mg/kg/injection, schedule: Q04DX003 (ip), vehicle: Klucel (hydroxypropylcellulose) (HPC)
[6] = dose: 200.0 mg/kg/injection, schedule: Q04DX003 (ip), vehicle: Klucel (hydroxypropylcellulose) (HPC)
[7] = dose: 100.0 mg/kg/injection, schedule: Q01DX009 (ip), vehicle: saline with Tween-80
[8] = dose: 100.0 mg/kg/injection, schedule: Q04DX003 (ip), vehicle: saline with Tween-80
[9] = dose: 200.0 mg/kg/injection, schedule: Q04DX003 (ip), vehicle: saline with Tween-80
[10] = dose: 400.0 mg/kg/injection, schedule: Q04DX003 (ip), vehicle: saline with Tween-80
[11] = dose: 100.0 mg/kg/injection, schedule: Q01DX009 (ip), vehicle: Klucel (hydroxypropylcellulose) (HPC)
[12] = dose: 200.0 mg/kg/injection, schedule: Q01DX009 (ip), vehicle: Klucel (hydroxypropylcellulose) (HPC)

Measured: T/C

C1CCC2(CC1)SCCCS2
inactive: [1] 102 % of control | dose: 200.0 mg/kg/injection, schedule: Q01DX001 (ip), vehicle: saline 113 % of control | dose: 400.0 mg/kg/injection, schedule: Q01DX001 (ip), vehicle: saline 110 % of control

CC(=O)NCCC(=O)O
inactive: [2] 95 % of control | [3] 101 % of control | [4] 95 % of control

Clc1ccc(N/N=C(\Cc2ccccn2)c2ccccc2)cc1
inactive: dose: 100.0 mg/kg/injection, schedule: Q04DX003 (sc), vehicle: olive oil, sesame oil, peanut oil 101 % of control | dose: 200.0 mg/kg/injection, schedule: Q04DX003 (sc), vehicle: olive oil, sesame oil, peanut oil 110 % of control | dose: 400.0 mg/kg/injection, schedule: Q04DX003 (sc), vehicle: olive oil, sesame oil, peanut oil 103 % of control

CCCCCCCCC(CCCCCCCC)CC1CC2CC1C1CCCC21 (configuration not stated)
inactive: dose: 75.0 mg/kg/injection, schedule: Q01DX001 (ip), vehicle: saline with Tween-80 92 % of control | dose: 150.0 mg/kg/injection, schedule: Q01DX001 (ip), vehicle: saline with Tween-80 98 % of control | dose: 300.0 mg/kg/injection, schedule: Q01DX001 (ip), vehicle: saline with Tween-80 95 % of control

CN(C)OC(=O)Nc1cccc(C(=O)ON(C)C)c1
inactive: dose: 100.0 mg/kg/injection, schedule: Q04DX002 (ip), vehicle: DMSO 99 % of control | dose: 200.0 mg/kg/injection, schedule: Q04DX002 (ip), vehicle: DMSO 101 % of control | dose: 400.0 mg/kg/injection, schedule: Q04DX002 (ip), vehicle: DMSO 101 % of control

O=C(NCCc1ccc(S(=O)(=O)Nc2ccc(N=Nc3ccc(N=Nc4ccccc4)cc3)cc2)cc1)C(N1CC1)(N1CC1)N1CC1
inactive: dose: 15.0 mg/kg/injection, schedule: Q01DX001 (ip), vehicle: saline 104 % of control | dose: 30.0 mg/kg/injection, schedule: Q01DX001 (ip), vehicle: saline 106 % of control

Cc1ccc2[c](c1)[Sn]([c]1ccccc1)([c]1ccccc1)[c]1cc(C)ccc1N2C
inactive: dose: 100.0 mg/kg/injection, schedule: Q01DX001 (ip), vehicle: steriod suspending solution 96 % of control | dose: 200.0 mg/kg/injection, schedule: Q01DX001 (ip), vehicle: steriod suspending solution 94 % of control | dose: 400.0 mg/kg/injection, schedule: Q01DX001 (ip), vehicle: steriod suspending solution 96 % of control

CN(C)CCCN=C=NC1CCCCC1
inactive: [5] 98 % of control | [6] 95 % of control

CCOC(=O)CCN1CCCC1
inactive: dose: 100.0 mg/kg/injection, schedule: Q01DX009 (ip), vehicle: saline 110 % of control | [2] 94 % of control | dose: 200.0 mg/kg/injection, schedule: Q01DX009 (ip), vehicle: saline 106 % of control | [3] 103 % of control | dose: 400.0 mg/kg/injection, schedule: Q01DX009 (ip), vehicle: saline 105 % of control | [4] 103 % of control

CCCn1c2c(c(=O)n(CC)c1=O)SC(OCC)C(=O)N2 (configuration not stated)
inactive: dose: 78.0 mg/kg/injection, schedule: Q01DX Z (ip), vehicle: other 96 % of control and 103 % of control | dose: 116.0 mg/kg/injection, schedule: Q01DX Z (ip), vehicle: other 108 % of control and 110 % of control | dose: 175.0 mg/kg/injection, schedule: Q01DX Z (ip), vehicle: other 116 % of control and 87 % of control | dose: 262.5 mg/kg/injection, schedule: Q01DX Z (ip), vehicle: other 92 % of control

NNC(=O)COc1ccccc1
inactive: [1] 106 % of control

O=C1c2ccccc2-c2c(Br)c3ccccc3c(=O)n21
inactive: dose: 50.0 mg/kg/injection, schedule: Q01DX001 (ip), vehicle: carboxymethylcellulose (CMC) 91 % of control | dose: 100.0 mg/kg/injection, schedule: Q01DX001 (ip), vehicle: carboxymethylcellulose (CMC) 89 % of control | dose: 200.0 mg/kg/injection, schedule: Q01DX001 (ip), vehicle: carboxymethylcellulose (CMC) 91 % of control | dose: 400.0 mg/kg/injection, schedule: Q01DX001 (ip), vehicle: carboxymethylcellulose (CMC) 94 % of control

Clc1ccc(C#CP(C#Cc2ccc(Cl)cc2)C#Cc2ccc(Cl)cc2)cc1
inactive: dose: 50.0 mg/kg/injection, schedule: Q01DX009 (ip), vehicle: saline with Tween-80 88 % of control | [7] 103 % of control

CNC(=O)ON=C(C)C
inactive: dose: 75.0 mg/kg/injection, schedule: Q01DX001 (ip), vehicle: saline 102 % of control | dose: 75.0 mg/kg/injection, schedule: Q01DX009 (ip), vehicle: saline 99 % of control | dose: 150.0 mg/kg/injection, schedule: Q01DX001 (ip), vehicle: saline 102 % of control | dose: 150.0 mg/kg/injection, schedule: Q01DX009 (ip), vehicle: saline 94 % of control | dose: 300.0 mg/kg/injection, schedule: Q01DX001 (ip), vehicle: saline 109 % of control | dose: 300.0 mg/kg/injection, schedule: Q01DX009 (ip), vehicle: saline 108 % of control

CCN(CC)CCC(C=NCC(CCN(CC)CC)(c1cccc2ccccc12)C(C)C)(c1cccc2ccccc12)C(C)C (configuration not stated)
inactive: dose: 1.5 mg/kg/injection, schedule: Q04DX002 (ip), vehicle: saline + alcohol 108 % of control | dose: 3.1 mg/kg/injection, schedule: Q04DX002 (ip), vehicle: saline + alcohol 102 % of control | dose: 6.25 mg/kg/injection, schedule: Q04DX002 (ip), vehicle: saline + alcohol 94 % of control | dose: 12.5 mg/kg/injection, schedule: Q04DX002 (ip), vehicle: saline + alcohol 92 % of control | dose: 25.0 mg/kg/injection, schedule: Q04DX002 (ip), vehicle: saline + alcohol 92 % of control | dose: 25.0 mg/kg/injection, schedule: Q04DX002 (ip), vehicle: saline with Tween-80 92 % of control

COC(=O)N1C2CCC(C2=C(C)C)N1C(=O)OC
inactive: dose: 50.0 mg/kg/injection, schedule: Q04DX003 (ip), vehicle: Klucel (hydroxypropylcellulose) (HPC) 105 % of control | [5] 102 % of control | [6] 94 % of control

O=C(OC1CC2CC=CC21)c1ccc([N+](=O)[O-])cc1 (configuration not stated)
inactive: [8] 96 % of control | [9] 98 % of control | [10] 94 % of control

COc1cccc(OC)c1OC(=O)NS(=O)(=O)c1ccc(Cl)cc1
inactive: [7] 116 % of control | [8] 104 % of control | dose: 200.0 mg/kg/injection, schedule: Q01DX009 (ip), vehicle: saline with Tween-80 98 % of control | [9] 97 % of control | dose: 400.0 mg/kg/injection, schedule: Q01DX009 (ip), vehicle: saline with Tween-80 106 % of control | [10] 103 % of control

CC(C)=CCN(CC=C(C)C)CCC(O)(Cc1ccccc1)c1ccccc1 (configuration not stated)
inactive: dose: 50.0 mg/kg/injection, schedule: Q01DX009 (ip), vehicle: Klucel (hydroxypropylcellulose) (HPC) 88 % of control | [11] 109 % of control | [5] 97 % of control | [12] 90 % of control | [6] 95 % of control

O=C(c1ccccc1)C(CBr)C(Br)c1ccccc1 (configuration not stated)
inactive: [11] 90 % of control | [5] 98 % of control | [12] 101 % of control | [6] 95 % of control | dose: 400.0 mg/kg/injection, schedule: Q01DX009 (ip), vehicle: Klucel (hydroxypropylcellulose) (HPC) 93 % of control | dose: 400.0 mg/kg/injection, schedule: Q04DX003 (ip), vehicle: Klucel (hydroxypropylcellulose) (HPC) 88 % of control

CCOC(=S)Nc1ccccc1
inactive: dose: 100.0 mg/kg/injection, schedule: Q04DX002 (ip), vehicle: Klucel (hydroxypropylcellulose) (HPC) 103 % of control | dose: 200.0 mg/kg/injection, schedule: Q04DX002 (ip), vehicle: Klucel (hydroxypropylcellulose) (HPC) 90 % of control | dose: 400.0 mg/kg/injection, schedule: Q04DX002 (ip), vehicle: Klucel (hydroxypropylcellulose) (HPC) 107 % of control
